Experimental data taken from patent publication US5750389A, “Purified saccharose-synthase, process for its production and its use” (Forschungszentrum Julich GmbH, priority 1992, dated 1998).

Assays:
[1] = system: purified sucrose-synthase from rice; assay: Substrate spectrum for the synthesis of disaccharides: variation of the acceptor, reacted with UDP-glucose; assay type: biochemical; details: for Relative Activity %: acceptor substrates reacted with UDP-glucose, D-fructose = 100
Procedure: 12. Substrate Spectrum of the Saccharose-synthase from rice for the synthesis of Disaccharides.
B: Variation of the Acceptor.
For the synthesis reaction, the acceptor was varied. Apart from the natural acceptor, other diastereomers of D-fructose, like D-psicose, D-tagatose, D-sorbose were introduced. Further, several keytoses were systematically tested. Apart from Aldoses, nonsugar acceptors were also tested.

[2] = system: purified sucrose-synthase from rice; assay: Substrate spectrum of the sucrose-synthase for the splitting reaction (saccharide + UDP); assay type: biochemical; details: for Relative Activity %: substrate splitting with UDP, 2 mM UDP, saccharide 75 to 500 mM, 3 h at 30° C., pH 7.2, Saccharose = 100; for replacement of saccharose in the splitting reaction (in words): Table 3
Procedure: 11. Substrate Spectrum of the Sucrose-Synthase for the splitting reaction (I)
For the splitting reaction of the sucrose-synthase, sucrose was replaced by other disaccharide or trisaccharide:
α-Glc 1-2 β-Fruc+UDP (TDP) UDP-Glc (TDP-Glc)
The concentration of the saccharide amounted to 75 to 500 mM in the reaction composition. 2 mM UDP or TDP and as a rule 10 to 80 mU enzyme were introduced. After 3 h at 30° C. and pH 7.2 (200 mM Hepes-NaOH), the reaction was stopped at 95° C. 5 min. The formation of nucleotide sugars was followed with HPLC and compared with a control (without enzyme).

[3] = system: purified Sucrose-synthase; assay: Substrate spectrum of the nucleosidediphosphate; assay type: biochemical, rice; details: pH 7.2, 30° C., FIG. 2
Procedure: 1. Substrate spectrum of the nucleosidediphosphate.
UDP, TDP, CDP, ADP and GDP were investigated. The reaction compositions contained:
100 μl Nucleosidediphosphate (15-90 mM)
100 μl purified Sucrose-synthase (21.1 mU/ml)
The reaction composition was incubated at 30° C. and stopped at different times (5 min. at 95° C.). After filtration of the sample through a 0.22 μm filter, the resulting nucleotide sugar was analyzed by means of ionpair HPLC.

saccharose synthase = assay: Dependence on divalent metal ions; assay type: biochemical, rice; details: 1 mM of metal ions
Description: 9. Dependence on Divalent Metal Ions

[4] = system: rice enzyme (sucrose-synthase); assay: Kinetics (Vmax, Km) of the splitting reaction; assay type: biochemical; details: sucrose 500 mM; for Km: UDP or TDP varied 0 to 10 mM, 1 h at 30° C., pH 6.5
Procedure: […] All reaction mixtures were incubated for 1 h at 30° C. and pH 6.5 (Hepes-NaOH 200 mM). The samples were treated as described above and analyzed with HPLC. […] The substrate excess inhibition can be countered by higher enzyme quantities.

[5] = system: purified saccharose synthase from rice; assay: Substrate spectrum for the synthesis of disaccharides: variation of the nucleotide sugar, fructose as acceptor; assay type: biochemical; details: for reaction of UDP-sugar with the rice enzyme (in words): Table 4; for Relative Activity %: UDP-sugars with fructose as acceptor, 2 hours at 30° C., pH 7.5, UDP-glucose = 100
Procedure: A: Variation of the Nucleotide Sugar.
For the synthesis reaction the nucleotide sugars were varied:
The composition contained:
The composition was incubated for 2 hours at 30° C. and stopped for 5 minutes at 95° C. With HPLC, with comparison with a control (without enzyme) the development of UDP was followed.

OCCN1CCCCC1
Relative Activity % [1]: 9.4%

OC[C@H]1O[C@@H](O[C@@H]2[C@@H](CO)OC(O)(CO)[C@H]2O)[C@H](O)[C@@H](O)[C@H]1O (mixture of isomers) [Lactulose]
acceptor of sucrose-synthase (in words) [1]: can also serve as acceptors | Relative Activity % [1]: 12.3%

O[C@@H]1[C@@H](O)[C@@H]2OC[C@@H](O2)[C@H]1O [1,6-Anhydroglucose]
acceptor of sucrose-synthase (in words) [1]: acceptors | Relative Activity % [1]: 9.1%

CCN1CCC(O)C1 (centres unmarked) [1-ethyl-3-hydroxy-pyrrolidine]
Relative Activity % [1]: 10.4%

OC[C@H]1O[C@@](CO)(O[C@@H]2C[C@@H](O)[C@H](O)[C@@H](CO)O2)[C@@H](O)[C@@H]1O [2-deoxy-saccharose]
Relative Activity % [2]: 55%

CN1CCC(O)C1 (centres unmarked) [3-hydroxy-N-methyl-pyrrolidine]
Relative Activity % [1]: 1.9%

OC1CCNC1 (centres unmarked) [3-hydroxypyrrolidine]
Relative Activity % [1]: 6.3%

OCC(O)CN1CCCC1 (centres unmarked) [3-pyrrolidino-1,2-propandiol]
Relative Activity % [1]: 9.6%

CC(C)[C@@H](O)[C@H](O)C(=O)CO [5,6-dideoxy-5-methyl-D-fructose]
Relative Activity % [1]: 19.0%

CC[C@@H](O)[C@H](O)C(=O)CO [5,6-dideoxy-D-fructose]
Relative Activity % [1]: 7.6%

CC(=O)[C@@H](O)[C@H](O)C(=O)CO [5-keto-6-deoxy-D-fructose]
Relative Activity % [1]: 25.1%

C[C@H](O)[C@@H](O)[C@H](O)C(=O)CO [6-desoxy-L-sorbase]
Relative Activity % [1]: 8.8%

Nc1ncnc2c1ncn2[C@@H]1O[C@H](COP(=O)(O)OP(=O)(O)O)[C@@H](O)[C@H]1O [ADP]
acceptance of the nucleosidediphosphate (rate of NDP-glucose formation) [3]: accepted in the sequence UDP, TDP, ADP, CDP and GDP

CC1(C)S[C@@H]2[C@H](NC(=O)[C@H](N)c3ccccc3)C(=O)N2[C@H]1C(=O)O [Ampicillin, reference compound]
Relative Activity % [2]: 2.4%

Nc1ccn([C@@H]2O[C@H](COP(=O)(O)OP(=O)(O)O)[C@@H](O)[C@H]2O)c(=O)n1 [CDP]
acceptance of the nucleosidediphosphate (rate of NDP-glucose formation) [3]: accepted in the sequence UDP, TDP, ADP, CDP and GDP

[Ca+2] [Ca^2+]
influence of metal ions on the enzyme activity, TDP as the substrate (saccharose synthase): stimulation of the enzyme activity

[Cu+2] [Cu^2+]
influence of metal ions on the enzyme activity (saccharose synthase): completely inactivated

O=C(CO)[C@@H](O)[C@H](O)[C@H](O)CO [D-fructose]
Relative Activity % [1]: 100%

O=C[C@@H](O)[C@@H](O)[C@H](O)CO [D-lyxose]
acceptor of sucrose-synthase (in words) [1]: acceptors | Relative Activity % [1]: 14.7%

O=C[C@@H](O)[C@@H](O)[C@H](O)[C@H](O)CO [D-mannose]
acceptor of sucrose-synthase (in words) [1]: acceptors | Relative Activity % [1]: 3.9%

O=C(CO)[C@H](O)[C@H](O)[C@H](O)CO [D-psicose]
Relative Activity % [1]: 14.1%

O=C(CO)[C@@H](O)[C@@H](O)[C@H](O)CO [D-tagatose]
Relative Activity % [1]: 28.3%

O=C(CO)[C@@H](O)[C@H](O)CO [D-xylulose]
acceptor of sucrose-synthase (in words) [1]: acceptors | Relative Activity % [1]: 40.7%

[Fe+2] [Fe^2+]
influence of metal ions on the enzyme activity (saccharose synthase): completely inactivated

Nc1nc2c(ncn2[C@@H]2O[C@H](COP(=O)(O)OP(=O)(O)O)[C@@H](O)[C@H]2O)c(=O)[nH]1 [GDP]
acceptance of the nucleosidediphosphate (rate of NDP-glucose formation) [3]: accepted in the sequence UDP, TDP, ADP, CDP and GDP

OC[C@H]1O[C@H](OC[C@H]2OC(O)(CO)[C@@H](O)[C@@H]2O)[C@H](O)[C@@H](O)[C@@H]1O (some centres unmarked) [Isomaltulose]
replacement of saccharose in the splitting reaction (in words) [2]: can replace the saccharose | Relative Activity % [2]: 1.0% | Relative Activity % [1]: 3.1%

O=C[C@H](O)[C@@H](O)[C@@H](O)CO [L-arabinose]
acceptor of sucrose-synthase (in words) [1]: acceptors | Relative Activity % [1]: 3.2%

O=C(CO)[C@@H](O)[C@H](O)[C@@H](O)CO [L-sorbose]
acceptor of sucrose-synthase (in words) [1]: acceptors | Relative Activity % [1]: 6.0%

OC[C@H]1O[C@@](CO)(O[C@H]2O[C@H](CO)[C@@H](O)[C@H](O)[C@H]2O)[C@@H](O[C@H]2O[C@H](CO)[C@@H](O)[C@H](O)[C@H]2O)[C@@H]1O [Melizitose]
replacement of saccharose in the splitting reaction (in words) [2]: can replace the saccharose | Relative Activity % [2]: 0.4% | Relative Activity % [1]: 0.6%

[Mg+2] [Mg^2+]
influence of metal ions on the enzyme activity (saccharose synthase): influenced only slightly

[Mn+2] [Mn^2+]
influence of metal ions on the enzyme activity (saccharose synthase): influenced only slightly | influence of metal ions on the enzyme activity, TDP as the substrate (saccharose synthase): stimulation of the enzyme activity

CCCCCCCCO[C@@H]1O[C@H](CO)[C@@H](O)[C@H](O)[C@H]1O [Octyl-β-D-glucopyranoside]
acceptor of sucrose-synthase (in words) [1]: acceptors | Relative Activity % [1]: 0.5%

OC[C@H]1O[C@H](OC[C@H]2O[C@H](O[C@]3(CO)O[C@H](CO)[C@@H](O)[C@@H]3O)[C@H](O)[C@@H](O)[C@@H]2O)[C@H](O)[C@@H](O)[C@H]1O [Raffinose]
replacement of saccharose in the splitting reaction (in words) [2]: can replace the saccharose | Relative Activity % [2]: 3.8% | acceptor of sucrose-synthase (in words) [1]: can also serve as acceptors | Relative Activity % [1]: 8.4%

OC[C@H]1O[C@@](CO)(O[C@H]2O[C@H](CO)[C@@H](O)[C@H](O)[C@H]2O)[C@@H](O)[C@@H]1O [Saccharose]
Relative Activity % [2]: 100%

OC[C@@]12OC[C@@H](O1)[C@@H](O)[C@@H](O)[C@@H]2O [Sedoheptulose Anhydride]
Relative Activity % [1]: 1.1%

Cc1cn([C@H]2C[C@H](O)[C@@H](COP(=O)(O)OP(=O)(O)O)O2)c(=O)[nH]c1=O [TDP]
Km [4]: 650 µM | acceptance of the nucleosidediphosphate (rate of NDP-glucose formation) [3]: accepted in the sequence UDP, TDP, ADP, CDP and GDP

CN1[C@@H]2CC[C@H]1C[C@@H](O)C2 [Tropin]
Relative Activity % [1]: 10.3%

O=C(CO)[C@@H](O[C@H]1O[C@H](CO)[C@@H](O)[C@H](O)[C@H]1O)[C@H](O)[C@H](O)CO [Turanose]
Relative Activity % [1]: 0.5%

CC(=O)N[C@H]1[C@@H](OP(=O)(O)OP(=O)(O)OC[C@H]2O[C@@H](n3ccc(=O)[nH]c3=O)[C@H](O)[C@@H]2O)O[C@H](CO)[C@@H](O)[C@@H]1O [UDP-N-acetylglucosamine]
reaction of UDP-sugar with the rice enzyme (in words) [5]: can be reacted with the rice enzyme | Relative Activity % [5]: 1.8%

O=c1ccn([C@@H]2O[C@H](COP(=O)(O)OP(=O)(O)O[C@H]3OC[C@@H](O)[C@H](O)[C@H]3O)[C@@H](O)[C@H]2O)c(=O)[nH]1 [UDP-xylose]
reaction of UDP-sugar with the rice enzyme (in words) [5]: can be reacted with the rice enzyme | Relative Activity % [5]: 1.7%

O=c1ccn([C@@H]2O[C@H](COP(=O)(O)OP(=O)(O)O)[C@@H](O)[C@H]2O)c(=O)[nH]1 [UDP]
Km [4]: 400 µM | Ki ([4]; with 0.9 mU enzyme, pH 6.5, 30° C., read-out: substrate excess inhibition Ki(S)): 16 mM | acceptance of the nucleosidediphosphate (rate of NDP-glucose formation) [3]: accepted in the sequence UDP, TDP, ADP, CDP and GDP
